Reference: patent US12234230B2, “Substituted benzyl-triazole compounds for Cbl-b inhibition, and further uses thereof” (Nurix Therapeutics, Inc., priority 2019, dated 2025)

Columns and labels:
[1] = test system: primary human total T-cells; test: Primary human total T-cell activation (IL-2 secretion, CD25 surface staining), Biological Example 2; details: fold change over baseline; for IL-2 secretion CD3/CD28 0.3 μM / CD25 staining CD3/CD28 0.3 μM: 0.3 μM inhibitor; for IL-2 secretion CD3/CD28 0.3 μM / IL-2 secretion CD3/CD28 1 μM / CD25 staining CD3/CD28 0.3 μM / CD25 staining CD3/CD28 1 μM: anti-CD3 and anti-CD28 co-stimulation; for IL-2 secretion CD3/CD28 1 μM / CD25 staining CD3 1 μM / IL-2 secretion CD3 1 μM / CD25 staining CD3/CD28 1 μM: 1 μM inhibitor; for CD25 staining CD3 1 μM / IL-2 secretion CD3 1 μM / CD25 staining CD3 3 μM / IL-2 secretion CD3 3 μM: anti-CD3 stimulation alone; for CD25 staining CD3 3 μM / IL-2 secretion CD3 3 μM: 3 μM inhibitor
Description: Peripheral blood mononuclear cells (PBMC) were obtained either: 1) by using Ficoll-Paque™ (GE Healthcare) for separation of peripheral blood hematopoietic cells from buffy coats of healthy human donors; or 2) directly from LeukoPak donations. […] The cells were rested overnight at 37° C. 5% CO2. The Cbl-inhibitor was added to 1×10^5 cells per well and the plate was incubated for one hour at 37° C. in 5% CO2 at the concentrations indicated (Table 3) with a final DMSO concentration of <0.1%. For samples stimulated with anti-CD3 antibody and anti-CD28 antibody (anti-CD3/anti-CD28), the Cbl-b inhibitor concentrations tested were 1 μM, and 0.3 μM. For samples stimulated with anti-CD3 antibody alone (anti-CD3), the Cbl-b inhibitor concentrations tested were 3 μM, and 1 μM. […] To prepare plates with plate bound anti-CD3 antibody (OKT3), 96-well round bottom tissue culture plates were coated with 100 μL of anti-CD3 antibody (OKT3) at 10 μg/mL for 4 hours at 37° C. 5% CO2 in phosphate buffered saline (PBS). […] Cells were stimulated for 48 hours prior to harvesting the cell free supernatant and staining the cell population for surface marker assessment by flow cytometry. Supernatants were analyzed for cytokine secretion, including IL-2 by ELISA (R&D Systems, Peprotech or Life Technologies) or Luminex multiplex kits (Procarta Life Technologies) following the manufacturer's protocol. Cells were stained with anti-CD25 antibody (BD Biosciences) to assess levels of surface marker of activation.
Readouts were reported as fold change over baseline. Baseline for this study was the measurement obtained from total human T-cells stimulated with anti-CD3 antibody and with soluble anti-CD28 antibody, wherein the cells were not incubated with a Cbl-b inhibitor (Table 3).

[2] = biological target: T1, Cbl-b (Homo sapiens (Human), UniProt Q13191); test: Cbl-b displacement assay (Cbl-b inhibition assay), Biological Example 8; assay type: binding; details: 0.125 nM Cbl-b final concentration (Low); Table 8-1
T1 sequence (Q13191 36-427): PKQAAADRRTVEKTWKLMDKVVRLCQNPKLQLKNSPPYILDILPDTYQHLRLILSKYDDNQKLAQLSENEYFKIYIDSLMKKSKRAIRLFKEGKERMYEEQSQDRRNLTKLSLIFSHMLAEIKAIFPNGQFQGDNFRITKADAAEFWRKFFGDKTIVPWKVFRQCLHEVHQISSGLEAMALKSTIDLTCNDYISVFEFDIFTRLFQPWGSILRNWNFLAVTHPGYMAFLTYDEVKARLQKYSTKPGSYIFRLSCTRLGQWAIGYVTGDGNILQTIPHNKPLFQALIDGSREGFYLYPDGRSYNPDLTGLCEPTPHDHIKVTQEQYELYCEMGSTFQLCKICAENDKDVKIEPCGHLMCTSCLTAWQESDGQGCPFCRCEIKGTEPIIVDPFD
Description: (§1) Candidate compounds were evaluated for their ability to bind and inhibit Cbl-b, an E3 ubiquitin-protein ligase, as evidenced by their ability to displace a fluorophore-labeled probe bound to Cbl-b.
(§2) The ability of candidate compounds to displace a known inhibitor and thereby inhibit Cbl-b activity was measured by monitoring the interaction of Cbl-b with a fluorophore-labeled probe in the presence of the candidate compound.
(§3) Fluorescently-labeled inhibitor probe was synthesized and tagged with BODIPY FL. […] Following the one hour incubation, the plates were read for TR-FRET signal at 520/620 nm using an Envision plate reader (Perkin Elmer).
(§4) The resulting data for the Cbl-b activity assays were analyzed using standard methods to determine the IC50 values for the tested compounds.

[3] = biological target: T1, Cbl-b; test: Cbl-b displacement assay (Cbl-b inhibition assay), Biological Example 1; assay type: binding
Description: as §2
Following the one hour incubation, the plates were read for TR-FRET signal at 520/620 nm using an Envision plate reader (Perkin Elmer).

[4] = biological target: T1, Cbl-b; test: Cbl-b displacement assay (Cbl-b inhibition assay), Biological Example 11; assay type: binding; details: 0.125 nM Cbl-b final concentration (Low); Table 11-1
Description: as §1, §2, §3, §4

[5] = test system: primary human total T-cells; test: Primary human total T-cell activation (IL-2 secretion, CD25 surface staining), Biological Example 9; details: fold change over baseline, Table 9-1; for IL-2 secretion CD3/CD28 0.3 μM: 0.3 μM inhibitor; for IL-2 secretion CD3/CD28 0.3 μM / IL-2 secretion CD3/CD28 1 μM: anti-CD3 and anti-CD28 co-stimulation; for IL-2 secretion CD3/CD28 1 μM / IL-2 secretion CD3 1 μM: 1 μM inhibitor
Description: Peripheral blood mononuclear cells (PBMC) were obtained either: 1) by using Ficoll-Paque™ (GE Healthcare) for separation of peripheral blood hematopoietic cells from buffy coats of healthy human donors; or 2) directly from LeukoPak donations. […] The cells were rested overnight at 37° C. 5% CO2. The Cbl-inhibitor was added to 1×10^5 cells per well and the plate was incubated for one hour at 37° C. in 5% CO2 at the concentrations indicated (Table 9-1) with a final DMSO concentration of <0.1%. For samples stimulated with anti-CD3 antibody and anti-CD28 antibody (anti-CD3/anti-CD28), the Cbl-b inhibitor concentrations tested were 1 μM, and 0.3 μM. For samples stimulated with anti-CD3 antibody alone (anti-CD3), the Cbl-b inhibitor concentrations tested were 3 μM, and 1 μM. […] To prepare plates with plate bound anti-CD3 antibody (OKT3), 96-well round bottom tissue culture plates were coated with 100 μL of anti-CD3 antibody (OKT3) at 10 μg/mL for 4 hours at 37° C. 5% CO2 in phosphate buffered saline (PBS). […] Cells were stimulated for 48 hours prior to harvesting the cell free supernatant and staining the cell population for surface marker assessment by flow cytometry. Supernatants were analyzed for cytokine secretion, including IL-2 by ELISA (R&D Systems, Peprotech or Life Technologies) or Luminex multiplex kits (Procarta Life Technologies) following the manufacturer's protocol. Cells were stained with anti-CD25 antibody (BD Biosciences) to assess levels of surface marker of activation.
Readouts were reported as fold change over baseline. Baseline for this study was the measurement obtained from total human T-cells stimulated with anti-CD3 antibody and with soluble anti-CD28 antibody, wherein the cells were not incubated with a Cbl-b inhibitor (Table 9-1). […] For T-cells stimulated with anti-CD3 alone, changes greater than 0.1-fold over baseline for IL-2 secretion and greater than 0.6-fold over baseline for CD25 surface staining were considered significant and a positive response.

[6] = test system: primary human total T-cells; test: Primary human total T-cell activation (IL-2 secretion, CD25 surface staining), Biological Example 12; details: fold change over baseline, Table 12-1; for IL-2 secretion CD3/CD28 0.3 μM: 0.3 μM inhibitor; for IL-2 secretion CD3/CD28 0.3 μM / IL-2 secretion CD3/CD28 1 μM: anti-CD3 and anti-CD28 co-stimulation; for IL-2 secretion CD3/CD28 1 μM / IL-2 secretion CD3 1 μM: 1 μM inhibitor
Description: Peripheral blood mononuclear cells (PBMC) were obtained either: 1) by using Ficoll-Paque™ (GE Healthcare) for separation of peripheral blood hematopoietic cells from buffy coats of healthy human donors; or 2) directly from LeukoPak donations. […] The cells were rested overnight at 37° C. 5% CO2. The Cbl-inhibitor was added to 1×10^5 cells per well and the plate was incubated for one hour at 37° C. in 5% CO2 at the concentrations indicated (Table 12-1) with a final DMSO concentration of <0.1%. For samples stimulated with anti-CD3 antibody and anti-CD28 antibody (anti-CD3/anti-CD28), the Cbl-b inhibitor concentrations tested were 1 μM, and 0.3 μM. For samples stimulated with anti-CD3 antibody alone (anti-CD3), the Cbl-b inhibitor concentrations tested were 3 μM, and 1 μM. […] To prepare plates with plate bound anti-CD3 antibody (OKT3), 96-well round bottom tissue culture plates were coated with 100 μL of anti-CD3 antibody (OKT3) at 10 μg/mL for 4 hours at 37° C. 5% CO2 in phosphate buffered saline (PBS). […] Cells were stimulated for 48 hours prior to harvesting the cell free supernatant and staining the cell population for surface marker assessment by flow cytometry. Supernatants were analyzed for cytokine secretion, including IL-2 by ELISA (R&D Systems, Peprotech or Life Technologies) or Luminex multiplex kits (Procarta Life Technologies) following the manufacturer's protocol. Cells were stained with anti-CD25 antibody (BD Biosciences) to assess levels of surface marker of activation.
Readouts were reported as fold change over baseline. Baseline for this study was the measurement obtained from total human T-cells stimulated with anti-CD3 antibody and with soluble anti-CD28 antibody, wherein the cells were not incubated with a Cbl-b inhibitor (Table 12-1). […] For T-cells stimulated with anti-CD3 alone, changes greater than 0.1-fold over baseline for IL-2 secretion and greater than 0.6-fold over baseline for CD25 surface staining were considered significant and a positive response.

[7] = 0.125 nM Cbl-b final concentration (Low), read-out: Cbl-b activity IC50 (Low)
[8] = 3 μM inhibitor, anti-CD3 stimulation alone

SMILES	IL-2 secretion CD3/CD28 0.3 μM [1]	IL-2 secretion CD3/CD28 1 μM [1]	CD25 staining CD3 1 μM [1]	IL-2 secretion CD3 1 μM [1]	CD25 staining CD3 3 μM [1]	IL-2 secretion CD3 3 μM [1]	IC50 [2] [nM]	IC50 [3, 7] [nM]	IC50 [4] [nM]	IL-2 secretion CD3/CD28 0.3 μM [5]	IL-2 secretion CD3/CD28 1 μM [5]	IL-2 secretion CD3 1 μM ([5]; anti-CD3 stimulation alone)	IL-2 secretion CD3 3 μM [5, 8]	IL-2 secretion CD3/CD28 0.3 μM [6]	IL-2 secretion CD3/CD28 1 μM [6]	IL-2 secretion CD3 1 μM ([6]; anti-CD3 stimulation alone)	IL-2 secretion CD3 3 μM [6, 8]	CD25 staining CD3/CD28 0.3 μM [1]	CD25 staining CD3/CD28 1 μM [1]	further results
C[C@H]1CCCN(Cc2cc3c(c(C(F)(F)F)c2)CN(c2cccc([C@H](c4nncn4C)C4CCC4)c2)C3=O)C1 [Compound 3, 2-(3-((R)-cyclobutyl(4-methyl-4H-1,2,4-triazol-3-yl)methyl)phenyl)-6-(((S)-3-methylpiperidin-1-yl)methyl)-4-(trifluoromethyl)isoindolin-1-one]	A (A indicates >35 fold)	A (A indicates >35 fold)	A (A indicates >2.5 fold)	A (A indicates >1.1 fold)	A (A indicates >2.5 fold)	A (A indicates >1.1 fold)	< 1	< 5	< 1	A (A indicates >15 fold)	A (A indicates >15 fold)	A (A indicates >0.66 fold)	A (A indicates >0.66 fold)	A (A indicates >15 fold)	A (A indicates >15 fold)	A (A indicates >0.66 fold)	A (A indicates >0.66 fold)			IC50 ([3]; read-out: IC50 values in the Cbl-b inhibition assay of Biological Example 1): ≤ 5 nM
C[C@@H]1CN(Cc2cc3c(c(C(F)(F)F)c2)CN(c2cccc([C@H](c4nncn4C)C4CCC4)c2)C3=O)CCO1 [Compound 17, 2-(3-((R)-cyclobutyl(4-methyl-4H-1,2,4-triazol-3-yl)methyl)phenyl)-6-(((R)-2-methylmorpholino)methyl)-4-(trifluoromethyl)isoindolin-1-one]	B (B indicates 20-35 fold)	A (A indicates >35 fold)	B (B indicates 1.5-2.5 fold)	A (A indicates >1.1 fold)	B (B indicates 1.5-2.5 fold)	A (A indicates >1.1 fold)		< 5		B (B indicates 10-15 fold)	A (A indicates >15 fold)	A (A indicates >0.66 fold)	A (A indicates >0.66 fold)	B (B indicates 11-15 fold)	A (A indicates >15 fold)	A (A indicates >0.66 fold)	A (A indicates >0.66 fold)	B (B indicates 1.24-1.39 fold)	B (B indicates 1.24-1.39 fold)	CD25 staining CD3 3 μM [5, 8]: B (B indicates 1.05-1.14 fold); CD25 staining CD3 3 μM [6, 8]: B (B indicates 1.05-1.14 fold)
C[C@H]1CCCN(Cc2cc3c(c(C(F)(F)F)c2)CN(c2cccc([C@]4(c5nncn5C)C[C@@H](C#N)C4)c2)C3=O)C1 [Compound 38, (1R,3s)-3-(4-methyl-4H-1,2,4-triazol-3-yl)-3-(3-(6-(((S)-3-methylpiperidin-1-yl)methyl)-1-oxo-4-(trifluoromethyl)isoindolin-2-yl)phenyl)cyclobutane-1-carbonitrile]	B (B indicates 20-35 fold)	B (B indicates 20-35 fold)	A (A indicates >2.5 fold)	A (A indicates >1.1 fold)	A (A indicates >2.5 fold)	B (B indicates 0.70-1.1 fold)	1 to 5	< 5	1 to 5	A (A indicates >15 fold)	A (A indicates >15 fold)	A (A indicates >0.66 fold)	A (A indicates >0.66 fold)	A (A indicates >15 fold)	A (A indicates >15 fold)	A (A indicates >0.66 fold)	A (A indicates >0.66 fold)			
C[C@@H]1CN(Cc2cc3c(c(C(F)(F)F)c2)CN(c2cccc([C@]4(c5nncn5C)C[C@H](CC#N)C4)c2)C3=O)CCC1(F)F [Compound 51, 2-((1R,3r)-3-(3-(6-(((R)-4,4-difluoro-3-methylpiperidin-1-yl)methyl)-1-oxo-4-(trifluoromethyl)isoindolin-2-yl)phenyl)-3-(4-methyl-4H-1,2,4-triazol-3-yl)cyclobutyl)acetonitrile]	A (A indicates >35 fold)	A (A indicates >35 fold)	A (A indicates >2.5 fold)	A (A indicates >1.1 fold)	A (A indicates >2.5 fold)	A (A indicates >1.1 fold)		< 5										B (B indicates 1.24-1.39 fold)	B (B indicates 1.24-1.39 fold)	
C[C@@H]1CN(Cc2cc3c(c(C(F)(F)F)c2)CN(c2cccc(C4(c5nncn5C)CC(F)(F)C4)c2)C3=O)CCC1(F)F [Compound 52, 2-{3-[3,3-difluoro-1-(4-methyl-1,2,4-triazol-3-yl)cyclobutyl]phenyl}-6-{[(3R)-4,4-difluoro-3-methylpiperidin-1-yl]methyl}-4-(trifluoromethyl)-3H-isoindol-1-one]	A (A indicates >35 fold)	B (B indicates 20-35 fold)	A (A indicates >2.5 fold)	A (A indicates >1.1 fold)	A (A indicates >2.5 fold)	A (A indicates >1.1 fold)		< 5												
C[C@@H]1CN(Cc2cc3c(c(C(F)(F)F)c2)CN(c2cccc(C4(c5nncn5C)CC(F)(F)C4)c2)C3=O)CCO1 [Compound 53, 2-{3-[3,3-difluoro-1-(4-methyl-1,2,4-triazol-3-yl)cyclobutyl]phenyl}-6-{[(2R)-2-methylmorpholin-4-yl]methyl}-4-(trifluoromethyl)-3H-isoindol-1-one]	A (A indicates >35 fold)	A (A indicates >35 fold)	A (A indicates >2.5 fold)	A (A indicates >1.1 fold)	A (A indicates >2.5 fold)	A (A indicates >1.1 fold)		< 5												
